Values after ≈ are worked out from the molar mass of the structure shown. Read-outs that look alike come from different tables or passages of the source. Where a SMILES comes first, the peptide text is derived from it.
Key:
[1] = test system: sheep red blood cells (sRBCs); experiment: Hemolytic activity; type: cell-based
Description: Specifically, hemolytic activity was analyzed using sheep red blood cells (sRBCs). In addition, as comparative groups, Ib-AMP4 and melittin were used. Defibrinated sheep blood (MB cells) was centrifuged (4,000×g, 10 min, 4° C.), washed with PBS three times, and suspended in PBS, thereby preparing an sRBC solution (10% sRBC). 5% sRBC and each peptide were mixed to have a final concentration of 1.25 to 160 μg/mL, allowed to react at room temperature for 30 minutes, and centrifuged to collect a supernatant. The absorbance (A414) of hemoglobin eluted from the red blood cells in the collected supernatant was measured at 414 nm. 0.1% Triton X−100 was used as a positive control, PBS was used as a negative control, and hemolytic activity (% Hemolysis) was calculated based on the following equation: % Hemolysis=[(A414 in peptide solution−A414 in PBS)/(A414 in 0.1% Triton X−100−A414 in PBS)]×100.

[2] = test system: Candida albicans KCTC 17712; type: cell-based
Description: (§1) To examine the antimicrobial and antifungal activity of the six types of peptide derivatives prepared in Example 1, antimicrobial and antifungal activity was analyzed using three types of bacterial strains and two types of fungal strains.
(§2) Specifically, to analyze antimicrobial and antifungal activity, a minimal inhibitory concentration (MIC) was measured. The three types of bacterial strains included Escherichia coli KCCM 41290, Staphylococcus aureus KCTC 1621, and Cutibacterium acnes KCTC 3314, and the two types of fungal strains included Candida albicans KCTC 17712, and Aspergillus niger KCTC 6317. The culture of Escherichia coli and Staphylococcus aureus was performed in Luria-Bertani (LB) medium (BD Difco), and the culture of Cutibacterium acnes was performed in reinforced clostridial medium (RCM, BD Difco). The culture of Candida albicans and Aspergillus niger was performed in potato dextrose (PD) medium (BD Difco). The pre-cultured microorganisms or spores were diluted in a medium to 5×10^3 CFU/mL, and each of the six types of peptide derivatives prepared in Example 1 was added at a predetermined concentration. Afterward, a bacterial strain was cultured at 37° C., a fungal strain was cultured at 25° C. for 18 to 24 hours, and optical densities (OD600) were measured using a microplate reader. Fluorescence values (Ex560 and Em600), instead of optical densities, were measured after adding a resazurin reagent to the Aspergillus niger medium to have a concentration of 100 μM. As a control, Ib-AMP4 was used, and the analysis results were expressed as the average of three repeated experiments.

[3] = test system: Cutibacterium acnes KCTC 3314; type: cell-based; conditions: KCTC 3314
Description: as §1, §2

[4] = test system: Staphylococcus aureus KCTC 1621; type: cell-based
Description: as §1, §2

[5] = test system: Escherichia coli KCCM 41290; type: cell-based
Description: as §1, §2

[6] = test system: Aspergillus niger KCTC 6317; type: cell-based
Description: as §1, §2

[7] = test system: L929 cells (murine fibroblast cell line); experiment: Cytotoxicity, WST-1 cell viability; type: cell-based
Description: (§3) Specifically, cytotoxicity was evaluated using a skin cell line, L929 cells (murine fibroblast cell line). In addition, as comparative groups, Ib-AMP4 and the bee venom-derived AMP, melittin, known to be highly cytotoxic, were used. The L929 cells were cultured in RPMI 1640 medium (Gibco), which was supplemented with 10% FBS (Sigma), antibiotic-antimycotic cocktail, penicillin G (100 IU/mL), streptomycin (100 μg/mL), and amphotericin B (250 ng/ml; Gibco), at 37° C. in 5% CO2. The cells were seeded in a 96-well plate at 1×10^4 cell/well, incubated for 18 hours, treated with each peptide at 1.25 to 160 µg/mL, and then incubated for 24 hours. 10 μL of WST-1 reagent was added to 100 μL of the medium and allowed to react at 37° C. for 30 minutes, and then absorbance (A450) was measured at 450 nm using a microplate reader. Instead of the peptides, 0.1% Triton X-100 and PBS were used as positive and negative controls, respectively, and cell viability was calculated based on the following equation: % Cell viability=[(A450 in peptide solution−A450 in PBS)/(A450 in 0.1% Triton X−100-A450 in PBS)]×100. The analysis results were expressed as mean±S.D of three repeated experiments.

[8] = Cytotoxicity, WST-1 cell viability; type: cell-based, murine; conditions: mouse, L929 cells (murine fibroblast cell line)
Description: as §3

[9] = L929 cells, peptide 1.25 μg/mL, 24 hours, read-out: Relative cell viability (%)
[10] = L929 cells, peptide 2.5 μg/mL, 24 hours, read-out: Relative cell viability (%)
[11] = L929 cells, peptide 5.0 μg/mL, 24 hours, read-out: Relative cell viability (%)
[12] = L929 cells, peptide 10 μg/mL, 24 hours, read-out: Relative cell viability (%)
[13] = L929 cells, peptide 20 μg/mL, 24 hours, read-out: Relative cell viability (%)
[14] = L929 cells, peptide 40 μg/mL, 24 hours, read-out: Relative cell viability (%)
[15] = L929 cells, peptide 80 μg/mL, 24 hours, read-out: Relative cell viability (%)
[16] = L929 cells, peptide 160 μg/mL, 24 hours, read-out: Relative cell viability (%)

## N=C(N)NCCC[C@H](NC(=O)CNC(=O)[C@H](Cc1c[nH]c2ccccc12)NC(=O)[C@@H](N)CCC(=O)O)C(=O)N[C@@H](CCCNC(=N)N)C(=O)N[C@@H](CS)C(=O)N[C@@H](CS)C(=O)NCC(=O)N[C@@H](Cc1c[nH]c2ccccc12)C(=O)NCC(=O)N1CCC[C@H]1C(=O)NCC(=O)N[C@@H](CCCNC(=N)N)C(=O)N[C@@H](CCCNC(=N)N)C(=O)N[C@@H](Cc1ccc(O)cc1)C(=O)N[C@@H](CS)C(=O)N[C@@H](CCCNC(=N)N)C(=O)N[C@@H](CCCNC(=N)N)C(=O)N[C@@H](Cc1c[nH]c2ccccc12)C(=O)N[C@@H](CS)C(N)=O [Ib-AMP4] (H-EWGRRCCGWGPGRRYCRRWC-NH2; N-terminus assumed)
[1]; red cells of sheep, 1.25 μg/mL
  Hemolytic Activity (%): 4.09%
[1]; red cells of sheep, 2.5 μg/mL
  Hemolytic Activity (%): 4.47%
[1]; red cells of sheep, 5 μg/mL
  Hemolytic Activity (%): 7.42%
[1]; red cells of sheep, 10 μg/mL
  Hemolytic Activity (%): 8.42%
[1]; red cells of sheep, 20 μg/mL
  Hemolytic Activity (%): 10.15%
[1]; red cells of sheep, 40 μg/mL
  Hemolytic Activity (%): 15.79%
[1]; red cells of sheep, 80 μg/mL
  Hemolytic Activity (%): 16.61%
[1]; sheep red blood cells
  hemolytic activity (in words): insignificant cytotoxic and hemolytic activity
[2]; Candida albicans, PD medium, 25° C., 18 to 24 hours, OD600
  MIC: 60 µg/mL (≈ 23.6 µM)
[3]
  MIC: >100 µg/mL
[4]; Staphylococcus aureus
  antimicrobial activity (in words): insignificant antimicrobial activity
[4]; Staphylococcus aureus, LB medium, 37° C., 18 to 24 hours, OD600
  MIC: > 100 µg/mL
[5]; Escherichia coli
  antimicrobial activity (in words): insignificant antimicrobial activity
[5]; Escherichia coli, LB medium, 37° C., 18 to 24 hours, OD600
  MIC: > 100 µg/mL
[6]; Aspergillus niger, PD medium, 25° C., 18 to 24 hours, resazurin fluorescence
  MIC: 80 µg/mL (≈ 31.5 µM)
[7]; L929 cells
  cytotoxic activity (in words): insignificant cytotoxic and hemolytic activity
[8]; [9]
  viability at 24 h, 1.25 µg/mL: 95%
[8]; [10]
  viability at 24 h, 2.5 µg/mL: 94.4%
[8]; [11]
  viability at 24 h, 5 µg/mL: 95.1%
[8]; [12]
  viability at 24 h, 10 µg/mL: 95.7%
[8]; [13]
  viability at 24 h, 20 µg/mL: 97.3%
[8]; [14]
  viability at 24 h, 40 µg/mL: 90.4%
[8]; [15]
  viability at 24 h, 80 µg/mL: 92.2%
[8]; [16]
  viability at 24 h, 160 µg/mL: 89.2%
[8]; L929 cells, peptide 160 g/mL as printed, read-out: cell viability
  viability at 24 h, 160 g/mL: ≥ 90%

## CC[C@H](C)[C@H](NC(=O)CN)C(=O)NCC(=O)N[C@@H](C)C(=O)N[C@H](C(=O)N[C@@H](CC(C)C)C(=O)N[C@@H](CCCCN)C(=O)N[C@H](C(=O)N[C@@H](CC(C)C)C(=O)N[C@H](C(=O)N[C@H](C(=O)NCC(=O)N[C@@H](CC(C)C)C(=O)N1CCC[C@H]1C(=O)N[C@@H](C)C(=O)N[C@@H](CC(C)C)C(=O)N[C@H](C(=O)N[C@@H](CO)C(=O)N[C@@H](Cc1c[nH]c2ccccc12)C(=O)N[C@H](C(=O)N[C@@H](CCCCN)C(=O)N[C@@H](CCCNC(=N)N)C(=O)N[C@@H](CCCCN)C(=O)N[C@@H](CCCNC(=N)N)C(=O)N[C@@H](CCC(N)=O)C(=O)N[C@@H](CCC(N)=O)C(N)=O)[C@@H](C)CC)[C@@H](C)CC)[C@@H](C)O)[C@@H](C)O)C(C)C)C(C)C [Melittin]
[1]; 5% sRBC, peptide 1.25 μg/mL, 30 minutes, room temperature
  Hemolytic Activity (%): 0.98%
[1]; 5% sRBC, peptide 2.5 μg/mL, 30 minutes, room temperature
  Hemolytic Activity (%): 3.40%
[1]; 5% sRBC, peptide 5.0 μg/mL, 30 minutes, room temperature
  Hemolytic Activity (%): 14.0%
[1]; 5% sRBC, peptide 10 μg/mL, 30 minutes, room temperature
  Hemolytic Activity (%): 25.02%
[1]; 5% sRBC, peptide 20 μg/mL, 30 minutes, room temperature
  Hemolytic Activity (%): 96.10%
[1]; 5% sRBC, peptide 40 μg/mL, 30 minutes, room temperature
  Hemolytic Activity (%): 99.36%
[7]; L929 cells, peptide 5.0 μg/mL, 24 hours
  Relative cell viability (%): 2.1%
[8]; [9]
  viability at 24 h, 1.25 µg/mL: 97.4%
[8]; [10]
  viability at 24 h, 2.5 µg/mL: 51.1%
[8]; [11]
  viability at 24 h, 5 µg/mL: 2.1%
[8]; [12]
  viability at 24 h, 10 µg/mL: 0.2%
[8]; [13]
  viability at 24 h, 20 µg/mL: 0.8%
[8]; [14]
  viability at 24 h, 40 µg/mL: 0.3%
[8]; [15]
  viability at 24 h, 80 µg/mL: 0.5%
[8]; [16]
  viability at 24 h, 160 µg/mL: 0.6%

## N=C(N)NCCC[C@H](NC(=O)[C@H](CCCNC(=N)N)NC(=O)[C@H](Cc1c[nH]c2ccccc12)NC(=O)[C@H](Cc1ccc(O)cc1)NC(=O)[C@H](CCCNC(=N)N)NC(=O)[C@H](CCCNC(=N)N)NC(=O)[C@H](Cc1c[nH]c2ccccc12)NC(=O)[C@@H]1CCCN1C(=O)CN)C(N)=O [VESCA3] (H-GPWRRYWRR-NH2)
[1]
  hemolytic activity (in words): insignificant cytotoxic and hemolytic activity
[2]; KCTC 17712
  MIC: 20 µg/mL (≈ 15 µM)
[3]
  MIC: >100 µg/mL
[4]; KCTC 1621
  MIC: 5 µg/mL (≈ 3.75 µM)
[5]; KCCM 41290
  MIC: 60 µg/mL (≈ 45.1 µM)
[6]; KCTC 6317
  MIC: 40 µg/mL (≈ 30 µM)
[7]
  cytotoxic activity (in words): insignificant cytotoxic and hemolytic activity
[8]
  viability at 24 h, 1.25 µg/mL: 96.7%
  viability at 24 h, 2.5 µg/mL: 104%
  viability at 24 h, 5 µg/mL: 104%
  viability at 24 h, 10 µg/mL: 97.1%
  viability at 24 h, 20 µg/mL: 99.7%
  viability at 24 h, 40 µg/mL: 91.9%
  viability at 24 h, 80 µg/mL: 91.6%
  viability at 24 h, 160 µg/mL: 94.9%
  viability at 24 h, 160 g/mL: ≥ 90%
